target: T1, GlyT1 (Homo sapiens, UniProt P48067); assay: Glycine Transporter 1 (GlyT1) uptake assay, scintillation proximity assay of [14C]-glycine uptake; assay type: cell-based; details: SPA, four parameter logistic fit, read-out: GlyT1 (pIC50) (converted)
T1 construct: expressed in transfected cells
T1 sequence (P48067 1-706): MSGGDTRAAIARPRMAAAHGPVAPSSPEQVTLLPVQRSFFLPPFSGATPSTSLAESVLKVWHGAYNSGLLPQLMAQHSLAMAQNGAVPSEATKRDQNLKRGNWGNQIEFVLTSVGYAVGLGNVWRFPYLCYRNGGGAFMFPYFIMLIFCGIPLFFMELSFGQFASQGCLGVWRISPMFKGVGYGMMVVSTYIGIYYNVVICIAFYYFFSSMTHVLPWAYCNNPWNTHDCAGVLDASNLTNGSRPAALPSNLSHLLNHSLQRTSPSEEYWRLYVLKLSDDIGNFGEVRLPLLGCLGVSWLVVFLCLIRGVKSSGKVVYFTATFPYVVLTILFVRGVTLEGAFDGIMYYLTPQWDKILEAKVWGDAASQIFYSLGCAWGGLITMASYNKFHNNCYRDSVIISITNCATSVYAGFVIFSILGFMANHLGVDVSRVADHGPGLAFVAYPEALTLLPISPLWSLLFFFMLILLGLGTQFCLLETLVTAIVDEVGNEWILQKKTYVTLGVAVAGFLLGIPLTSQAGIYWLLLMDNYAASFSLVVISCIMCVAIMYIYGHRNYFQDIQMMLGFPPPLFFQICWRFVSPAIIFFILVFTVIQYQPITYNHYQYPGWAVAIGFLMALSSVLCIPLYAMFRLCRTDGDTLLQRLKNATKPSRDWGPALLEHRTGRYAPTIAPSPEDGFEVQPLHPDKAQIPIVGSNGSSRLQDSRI
How it was run: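 [14C]-glycine uptake read by scintillation proximity on a plate counter. IC50 from four-parameter logistic fit of dose-response data.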

Row | Compound | IC50 [nM]
1 | CS(=O)(=O)c1ccc(N2CCC(F)(F)CC2)c(C(=O)N2Cc3cn(C4CCCC4)nc3C2)c1 [Example 430, 1-(2-{2-Cyclopentyl-2H 4H 5H 6H-pyrrolo[3,4-c]pyrazole-5-carbonyl}-4-methanesulfonylphenyl)-4 4-difluoropiperidine] | < 100
2 | CS(=O)(=O)c1ccc(N2CCC(F)(F)CC2)c(C(=O)N2Cc3cn(CC4CCC4)nc3C2)c1 [Example 431, 1-{2-[2-(Cyclobutylmethyl)-2H 4H 5H 6H-pyrrolo[3,4-c]pyrazole-5-carbonyl]-4-methanesulfonylphenyl}-4 4-difluoropiperidine] | < 100
3 | CC(C)Cn1cc2c(n1)CN(C(=O)c1cc(S(C)(=O)=O)ccc1N1CCC(F)(F)CC1)C2 [Example 432, 4 4-Difluoro-1-{4-methanesulfonyl-2-[2-(2-methylpropyl)-2H 4H 5H 6H-pyrrolo[3,4-c]pyrazole-5-carbonyl]phenyl}piperidine] | < 100
4 | CC(C)n1cc2c(n1)CN(C(=O)c1cc(S(C)(=O)=O)ccc1N1CCC(F)(F)CC1)C2 [Example 433, 4 4-Difluoro-1-{4-methanesulfonyl-2-[2-(propan-2-yl)-2H 4H 5H 6H-pyrrolo[3,4-c]pyrazole-5-carbonyl]phenyl}piperidine] | 100 to 1000
5 | CC(C)(F)Cn1cc2c(n1)CN(C(=O)c1cc(S(C)(=O)=O)ccc1-c1cccc(F)c1)C2 [Example 434, 2-(2-Fluoro-2-methylpropyl)-5-[2-(3-fluorophenyl)-5-methanesulfonylbenzoyl]-2H 4H 5H 6H-pyrrolo[3,4-c]pyrazole] | 100 to 1000
6 | CC1(COc2ccc(S(C)(=O)=O)cc2C(=O)N2Cc3cn(-c4ccccc4)nc3C2)COC1 [Example 435, 5-{5-Methanesulfonyl-2-[(3-methyloxetan-3-yl)methoxy]benzoyl}-2-phenyl-2H 4H 5H 6H-pyrrolo[3,4-c]pyrazole] | < 100

Now from value to compound:

Row | IC50 [nM] | Compound
7 | 100 to 1000 | CC1(COc2ccc(S(C)(=O)=O)cc2C(=O)N2Cc3cn(-c4ccccc4F)nc3C2)COC1 [Example 436, 2-(2-Fluorophenyl)-5-{5-methanesulfonyl-2-[(3-methyloxetan-3-yl)methoxy]benzoyl}-2H 4H 5H 6H-pyrrolo[3,4-c]pyrazole]
8 | < 100 | Cc1cccc(-n2cc3c(n2)CN(C(=O)c2cc(S(C)(=O)=O)ccc2OCC2(C)COC2)C3)c1 [Example 437, 5-{5-Methanesulfonyl-2-[(3-methyloxetan-3-yl)methoxy]benzoyl}-2-(3-methylphenyl)-2H 4H 5H 6H-pyrrolo[3,4-c]pyrazole]
9 | 100 to 1000 | CC1(COc2ccc(S(C)(=O)=O)cc2C(=O)N2Cc3cn(-c4cccc(C(F)(F)F)c4F)nc3C2)COC1 [Example 438, 2-[2-Fluoro-3-(trifluoromethyl)phenyl]-5-{5-methanesulfonyl-2-[(3-methyloxetan-3-yl)methoxy]benzoyl}-2H 4H 5H 6H-pyrrolo[3,4-c]pyrazole]
10 | 100 to 1000 | CC1(COc2ccc(S(C)(=O)=O)cc2C(=O)N2Cc3cn(-c4cc(Cl)ccc4F)nc3C2)COC1 [Example 439, 2-(5-Chloro-2-fluorophenyl)-5-{5-methanesulfonyl-2-[(3-methyloxetan-3-yl)methoxy]benzoyl}-2H 4H 5H 6H-pyrrolo[3,4-c]pyrazole]
11 | < 100 | CC1(COc2ccc(S(C)(=O)=O)cc2C(=O)N2Cc3cn(-c4ccc(F)cc4)nc3C2)COC1 [Example 440, 2-(4-Fluorophenyl)-5-{5-methanesulfonyl-2-[(3-methyloxetan-3-yl)methoxy]benzoyl}-2H 4H 5H 6H-pyrrolo[3,4-c]pyrazole]
12 | 100 to 1000 | Cc1cccc(-n2cc3c(n2)CN(C(=O)c2cc(S(C)(=O)=O)ccc2OCC2(C)COC2)C3)c1F [Example 441, 2-(2-Fluoro-3-methylphenyl)-5-{5-methanesulfonyl-2-[(3-methyloxetan-3-yl)methoxy]benzoyl}-2H 4H 5H 6H-pyrrolo[3,4-c]pyrazole]

— patent US9708334B2, “Substituted 2,4,5,6-tetrahydropyrrolo[3,4-c]pyrazole and 4,5,6,7-tetrahydro-2H-pyrazolo[4,3-c]pyridine compounds as GlyT1 inhibitors” (DART NEUROSCIENCE (CAYMAN) LTD., priority 2014, dated 2017)
